One may read the IC50 as the concentration needed to halve the response being measured.

IC50 data for 6 molecules are collected here from ChEMBL document CHEMBL4665902, “Novel Heteroaryl Compounds for Treating Huntington's Disease” (ACS Med Chem Lett, 2020).

SMILES strings stand for the structures.

Huntingtin, sequence (P42858 whole entry): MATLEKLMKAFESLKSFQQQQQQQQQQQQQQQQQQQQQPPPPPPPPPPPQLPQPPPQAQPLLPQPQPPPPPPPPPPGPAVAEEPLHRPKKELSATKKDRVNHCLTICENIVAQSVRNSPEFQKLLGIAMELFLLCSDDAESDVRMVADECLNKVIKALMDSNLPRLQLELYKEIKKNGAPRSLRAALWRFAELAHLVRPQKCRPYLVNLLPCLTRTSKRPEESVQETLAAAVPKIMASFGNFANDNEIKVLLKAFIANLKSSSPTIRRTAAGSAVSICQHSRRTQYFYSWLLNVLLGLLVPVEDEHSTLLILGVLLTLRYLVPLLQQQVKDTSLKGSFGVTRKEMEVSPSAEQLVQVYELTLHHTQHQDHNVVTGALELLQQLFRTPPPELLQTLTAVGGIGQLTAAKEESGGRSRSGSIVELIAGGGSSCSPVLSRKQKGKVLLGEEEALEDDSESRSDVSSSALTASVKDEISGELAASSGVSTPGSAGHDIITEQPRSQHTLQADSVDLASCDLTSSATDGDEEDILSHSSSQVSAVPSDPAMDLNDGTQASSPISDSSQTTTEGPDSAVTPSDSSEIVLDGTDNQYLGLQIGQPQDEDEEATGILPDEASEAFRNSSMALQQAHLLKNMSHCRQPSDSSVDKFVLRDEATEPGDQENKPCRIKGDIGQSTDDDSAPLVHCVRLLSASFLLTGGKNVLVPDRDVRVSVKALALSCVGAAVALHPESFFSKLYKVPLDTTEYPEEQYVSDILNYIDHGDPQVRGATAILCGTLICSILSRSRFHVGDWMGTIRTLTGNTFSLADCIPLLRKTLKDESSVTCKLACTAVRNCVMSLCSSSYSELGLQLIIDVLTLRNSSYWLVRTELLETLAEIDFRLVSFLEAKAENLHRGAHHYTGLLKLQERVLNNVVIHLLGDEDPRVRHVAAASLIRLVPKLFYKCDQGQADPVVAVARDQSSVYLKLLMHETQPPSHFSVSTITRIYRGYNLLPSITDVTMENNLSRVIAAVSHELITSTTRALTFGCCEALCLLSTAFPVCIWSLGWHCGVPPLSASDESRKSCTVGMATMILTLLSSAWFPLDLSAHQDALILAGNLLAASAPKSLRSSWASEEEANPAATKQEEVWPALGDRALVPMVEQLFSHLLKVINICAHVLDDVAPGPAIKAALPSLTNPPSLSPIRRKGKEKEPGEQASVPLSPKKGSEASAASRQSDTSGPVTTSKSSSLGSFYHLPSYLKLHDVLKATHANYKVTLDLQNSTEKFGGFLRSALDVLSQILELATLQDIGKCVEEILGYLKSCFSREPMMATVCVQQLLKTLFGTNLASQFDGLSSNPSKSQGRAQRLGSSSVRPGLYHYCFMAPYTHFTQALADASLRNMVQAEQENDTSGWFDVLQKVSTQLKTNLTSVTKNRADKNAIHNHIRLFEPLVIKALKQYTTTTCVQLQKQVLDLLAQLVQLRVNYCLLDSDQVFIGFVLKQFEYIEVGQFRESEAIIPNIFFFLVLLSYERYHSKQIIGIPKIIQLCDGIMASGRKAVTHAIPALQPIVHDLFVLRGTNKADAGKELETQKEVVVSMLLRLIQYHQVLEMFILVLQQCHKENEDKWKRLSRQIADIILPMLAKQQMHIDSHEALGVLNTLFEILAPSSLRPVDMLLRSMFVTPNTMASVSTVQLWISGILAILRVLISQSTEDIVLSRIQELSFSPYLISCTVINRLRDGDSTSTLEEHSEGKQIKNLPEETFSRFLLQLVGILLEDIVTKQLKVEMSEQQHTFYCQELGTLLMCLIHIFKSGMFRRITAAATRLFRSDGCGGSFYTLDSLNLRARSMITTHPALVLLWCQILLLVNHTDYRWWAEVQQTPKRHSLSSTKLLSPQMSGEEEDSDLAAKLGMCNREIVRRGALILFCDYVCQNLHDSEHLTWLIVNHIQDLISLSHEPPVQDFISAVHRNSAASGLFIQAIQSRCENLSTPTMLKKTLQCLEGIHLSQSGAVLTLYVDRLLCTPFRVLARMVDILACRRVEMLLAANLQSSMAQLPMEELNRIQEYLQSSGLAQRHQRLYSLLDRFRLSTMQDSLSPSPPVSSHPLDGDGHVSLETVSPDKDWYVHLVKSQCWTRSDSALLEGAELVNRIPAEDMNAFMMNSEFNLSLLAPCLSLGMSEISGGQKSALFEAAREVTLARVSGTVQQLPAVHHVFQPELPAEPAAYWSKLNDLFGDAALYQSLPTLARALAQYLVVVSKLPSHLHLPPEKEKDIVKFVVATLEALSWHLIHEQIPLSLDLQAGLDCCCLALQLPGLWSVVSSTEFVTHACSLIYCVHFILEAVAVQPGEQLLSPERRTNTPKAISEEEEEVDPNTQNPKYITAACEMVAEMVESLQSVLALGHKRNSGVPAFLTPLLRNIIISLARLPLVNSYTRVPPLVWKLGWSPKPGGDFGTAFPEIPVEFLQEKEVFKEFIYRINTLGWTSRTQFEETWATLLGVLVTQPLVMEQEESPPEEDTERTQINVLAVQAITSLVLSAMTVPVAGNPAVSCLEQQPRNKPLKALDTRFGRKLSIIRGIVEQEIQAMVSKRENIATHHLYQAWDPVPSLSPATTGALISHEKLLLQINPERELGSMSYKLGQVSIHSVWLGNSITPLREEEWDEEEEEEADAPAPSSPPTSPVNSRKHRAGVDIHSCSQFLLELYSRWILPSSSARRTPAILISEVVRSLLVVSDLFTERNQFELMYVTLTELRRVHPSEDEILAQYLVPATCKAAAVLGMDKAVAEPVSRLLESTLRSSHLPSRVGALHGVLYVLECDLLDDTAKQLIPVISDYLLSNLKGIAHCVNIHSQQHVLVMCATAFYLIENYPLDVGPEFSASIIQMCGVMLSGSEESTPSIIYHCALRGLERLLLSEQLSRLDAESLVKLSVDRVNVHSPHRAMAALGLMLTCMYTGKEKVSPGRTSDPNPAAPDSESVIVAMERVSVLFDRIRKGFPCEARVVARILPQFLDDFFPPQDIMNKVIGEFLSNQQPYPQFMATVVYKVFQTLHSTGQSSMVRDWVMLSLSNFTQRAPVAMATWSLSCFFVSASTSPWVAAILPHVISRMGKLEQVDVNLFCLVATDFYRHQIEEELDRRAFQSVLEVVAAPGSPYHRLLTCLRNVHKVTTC

This test addresses Huntingtin (Homo sapiens, UniProt P42858). Nature of the test: Inhibition of Huntingtin protein (unknown origin) incubated for overnight in presence of MW1/MAB2166 monoclonal antibody by MSD assay.
With `Cc1cn2nc(-c3cn4cc(C5CCNCC5)nc4s3)cc(C)c2n1`, the 50% inhibitory concentration (IC50) is ≤ 100 nM.
`CN(c1nc2sc(-c3ncc(-c4cn[nH]c4)nn3)nc2s1)C1CC(C)(C)NC(C)(C)C1`: the half-inhibitory concentration (IC50) was ≤ 100 nM.
As to `Cn1cc2cc(-c3nn4cc(C5CCNCC5)nc4s3)cc(C#N)c2n1`, the IC50 was ≤ 100 nM.
For `CN(c1nc2sc(-c3ncc(-c4cn[nH]c4)cc3O)nc2s1)C1CC(C)(C)NC(C)(C)C1`, the IC50 was ≤ 100 nM.
For the molecule `CN(c1nc2sc(-c3cnc(-c4cn[nH]c4)c4[nH]ccc34)nc2s1)C1CCNCC1`, the IC50 was ≤ 100 nM.
With `C[C@H]1C[C@H](Oc2nc3sc(-c4ncc(-c5nnn(C)n5)c5cc[nH]c45)nc3s2)CCN1`, the IC50 was ≤ 100 nM.
